# Values of other authors in patent US20100055036A1, “PET VISUALIZATION OF AMYLOID-ASSOCIATED NEUROINFLAMMATION IN THE BRAIN” (National Institute of Radiolotgical Sciences, priority 2007, published 2010).
# Tested on: amyloid plaque lesions in mouse brain
# Conditions: mice developing abundant plaque lesions vs WT
smiles,measurement,value
"[11CH3]Nc1ccc(-c2nc3ccc(O)cc3s2)cc1 [[^11C]6-OH-BTA-1, N-[^11C]methyl-2-(4′-methylaminophenyl)-6-hydroxybenzothiazole]",PET data in brains of plaque-bearing mice compared with wild-type mouse brains,virtually indistinguishable
